Data as given in patent publication EP0202661B1, “Isolation of castanospermine and its use as an antidiabetic agent” (MERRELL DOW PHARMACEUTICALS INC., priority 1985, dated 1986).

Key:
[1] = system: Sucrose-Administered Mice; assay: Inhibitory action against increase of blood glucose in sucrose-administered mice; format: in vivo, Male ICR-swiss mice; settings: for Blood Glucose Concentration (mg%) at 30 Min. After Sucrose: fasted mice, sucrose control (0 mg/kg) 205, blank 107
Method: Inhibitory Action Against Increase of Blood Glucose in Sucrose-Administered Mice
Male ICR-swiss mice with body weight of 25-35 g were fasted overnight. Sucrose was administered orally by gavage at a dose of 2 g/kg 15 minutes after the similar administration of castanospermine at doses of 0.125 to 60 mg/kg. Animals were sacrificed at 30 minutes after sucrose administration and blood glucose levels were measured by a method using glucose dehydrogenase. […]

[2] = system: Starch-Administrated Mice; assay: Inhibitory action against increase of blood glucose in starch-administered mice; format: in vivo, Male ICR-Swiss mice; settings: for Blood Glucose Concentration (mg%) at 45 min. After Starch: fasted mice, starch control (0 mg/kg) 126, blank 72
Method: Inhibitory Action Against Increase of Blood Glucose in Starch-Administrated Mice
Male ICR-Swiss mice with body weight of 25-35 g were fasted overnight. Starch was administered orally by gavage at a dose of 1 g/kg 15 minutes after the similar administration of castanospermine at doses of 1.9 to 60 mg/kg. Animals were sacrificed at 45 minutes after starch administration and blood glucose levels were measured by a method using glucose dehydrogenase. […]

[3] = system: intestinal glycosidases (i.e., maltase and sucrase); settings: rats, cited from earlier work

With `O[C@H]1[C@H](O)[C@@H](O)CN2CC[C@H](O)[C@H]12` [Castanospermine, (1S,6S,7R,8R,8aR)-1,6,7,8-tetrahydroxyindolizidine] as the compound, how does the minimal effective dose ([1]; Mus musculus, 0.5 h, oral gavage 15 min before sucrose 2 g/kg, blood glucose 30 min after sucrose, read-out: dose at which the increase in glucose in the blood could be significantly inhibited) read?
The minimal effective dose was ≥ 0.125 mg/kg.

And the “Blood Glucose Concentration (mg%) at 30 Min. After Sucrose” value ([1]; castanospermine 0.125 mg/kg oral gavage 15 min before sucrose 2 g/kg)?
Its value is 159 mg%.

What about the “Blood Glucose Concentration (mg%) at 30 Min. After Sucrose” value ([1]; castanospermine 0.25 mg/kg oral gavage 15 min before sucrose 2 g/kg) of the same compound?
The value was 167 mg%.

And the “Blood Glucose Concentration (mg%) at 30 Min. After Sucrose” value ([1]; castanospermine 0.5 mg/kg oral gavage 15 min before sucrose 2 g/kg)?
Its value is 153 mg%.

And the “Blood Glucose Concentration (mg%) at 30 Min. After Sucrose” value ([1]; castanospermine 1.0 mg/kg oral gavage 15 min before sucrose 2 g/kg)?
The value was 146 mg%.

And the “Blood Glucose Concentration (mg%) at 30 Min. After Sucrose” value ([1]; castanospermine 2.0 mg/kg oral gavage 15 min before sucrose 2 g/kg)?
Its value is 116 mg%.

What about the minimal effective dose ([2]; Mus musculus, 0.75 h, oral gavage 15 min before starch 1 g/kg, blood glucose 45 min after starch, read-out: dose at which the increase in glucose in the blood could be significantly inhibited) of the same compound?
Its minimal effective dose is ≥ 3.8 mg/kg.

And the “Blood Glucose Concentration (mg%) at 45 min. After Starch” value ([2]; castanospermine 1.9 mg/kg oral gavage 15 min before starch 1 g/kg)?
The value was 139 mg%.

And the “Blood Glucose Concentration (mg%) at 45 min. After Starch” value ([2]; castanospermine 3.8 mg/kg oral gavage 15 min before starch 1 g/kg)?
Its value is 83 mg%.

And the “Blood Glucose Concentration (mg%) at 45 min. After Starch” value ([2]; castanospermine 7.5 mg/kg oral gavage 15 min before starch 1 g/kg)?
Its value is 85 mg%.

What about the “inhibition of intestinal glycosidases (i.e., maltase and sucrase)” value ([3]; administered by injection, Saul et al., Proc. Nat'l. Acad. Sci. USA, 82, 93 (1985)) of the same compound?
The value was “inhibits intestinal glycosidases”.

And the “adverse observations at high doses” value ([3]; high doses administered by injection, Saul et al. (1985))?
The value was “diarrhea and high levels of intestinal bacterial flora were observed”.
